Measured values reported in patent US20250003952A1, “SENOLYTIC DRUG SCREENING METHOD AND SENOLYTIC DRUG” (KYOTO UNIVERSITY, priority 2021, published 2025).

Legend:
[1] = test system: aged C57BL/6 mice; test: Nutlin 3b administration to aged mice for 2 months, RT-PCR of senescence and inflammation markers; assay type: in vivo, mouse; details: 90 weeks, 11.63 mg/kg intraperitoneal once a week for 2 months
Description: Specifically, 16 aged C57BL/6 mice at 90 weeks of age were provided. The mice were divided into two groups (control: 8 mice, agent group: 8 mice), and intraperitoneal injection administration once a week was continued for 2 months. […] One week after the end of the last administration, all mice were dissected, and RNA was extracted from each organ. Senescence markers and inflammation markers were evaluated by RT-PCR.

[2] = test system: glycolytic metabolism; test: Glycolytic metabolism (glucose consumption, lactate production) in etoposide-induced senescent IMR90 cells; assay type: cell-based, human; details: 20 μM or 40 μM for 48 hours
Description: Next, young cells (within 1 month of continuous culture) of the IMR90 cells were treated with 100 μM etoposide for 48 hours to acquire senescent cells. […] After the nutlin treatment, the medium was collected, and glucose consumption was evaluated and lactate production was measured. The lactate level is calculated as a value (μmol/mg/h) obtained by measuring the amount of lactate secreted into the medium per hour (μmol/h) and correcting the same by the total cell protein (mg) and is expressed as a value relative to the actual value on day 0. The glucose consumption is calculated as a value (μmol/mg/h) obtained by measuring the amount of glucose decreased from the medium per hour (μmol/h) and correcting the same by the total cell protein (mg) and is expressed as a value relative to the actual value on day 0. Glucose and lactate were measured by using a Glucose assay kit (BioVision) (upper diagram in FIG. 8) and a Lactate assay kit (BioVision) (lower diagram in FIG. 8), respectively.

[3] = test system: p53; test: p53 activation (Western blot of p53 and p21) in young IMR90 cells; assay type: cell-based, human; details: 20 μM for 48 hours
Text: After the treatment, proteins were extracted from the cells to carry out Western blotted.

[4] = test system: IMR90 cells; test: Senolysis / cell death of young and Ras-induced senescent IMR90 cells; assay type: cell-based, human
Text: Ras gene with oncogenic mutation was introduced into young cells (within 1 month of continuous culture) of IMR90 cells by retroviral infection to acquire senescent cells. […] The control received only DMSO treatment. Representative images of cells observed under a microscope are shown (FIG. 11).
An oncogenic mutated Ras gene was introduced into young cells (within 1 month of continuous culture) of IMR90 cells by retroviral infection to acquire stress-induced senescent cells. The young cells and the senescent cells were both treated with different concentrations of the RSK kinase inhibitor BI-D1870 for 96 hours to evaluate cell death.
An oncogenic mutated Ras gene was introduced into young cells (within 1 month of continuous culture) of IMR90 cells by retroviral infection to acquire stress-induced senescent cells. The young cells and the senescent cells of IMR90 were both transfected with an RSK1 siRNA (two types of siRNA #1 (SEQ ID NO: 7) or #2 (SEQ ID NO: 8) having different target sequences) or a control to knock down RSK1. Representative images of cells observed under a microscope are shown (upper diagram in FIG. 20).
An oncogenic Ras was introduced into young cells (within 1 month of continuous culture) of IMR90 cells to induce senescent cells (OIS). The young cells and the senescent cells of IMR90 were transfected with two HIF-2α-specific siRNAs (SEQ ID NO: 9 and SEQ ID NO: 10) having different target sequences to knock down HIF-2α.
An oncogenic Ras was introduced into young cells (within 1 month of continuous culture) of IMR90 cells to induce senescent cells (OIS). The young cells and the senescent cells of IMR90 were transfected with a BIM-specific siRNA to knock down BIM.
An oncogenic Ras was introduced into young cells (within 1 month of continuous culture) of IMR90 cells to induce senescent cells (OIS). In the young cells and the senescent cells of IMR90, HIF-2α alone or both HIF-2α and BIM were knocked down by using their respective specific siRNAs (SEQ ID NO: 9, SEQ ID NO: 10), and cell death was confirmed (FIG. 28).
(§1) The latter information consists of 12,655 ChIP datasets from 903 antigens (transcription factors and epigenetic regulators).

[5] = test system: BIM gene; test: BIM gene expression in Ras-induced senescent IMR90 cells; assay type: cell-based, human; details: senescent (OIS) IMR90 cells; 48 hours
Description: An oncogenic Ras was introduced into young cells (within 1 month of continuous culture) of IMR90 cells to induce senescent cells (OIS).
An oncogenic Ras was introduced into young cells (within 1 month of continuous culture) of IMR90 cells to induce senescent cells (OIS). The senescent cells were transfected with an HIF-2α-specific siRNA (SEQ ID NO: 9) to knock down HIF-2α. After that, the expression of the BIM gene, which is an apoptosis-inducing gene, was analyzed (FIG. 26).

[6] = test system: senescent cells; test: Transcriptome / microarray / mRNA analysis of nutlin 3b-treated senescent cells; assay type: cell-based, human
Description: as §1
A microarray dataset on nutlin 3b-treated senescent cells was analyzed for 202 genes (GO:0042981) classified as regulation of the apoptotic process.
In the Fox family, FoxO protein is deeply involved in the senescence process.

[7] = test system: Twenty-month-old C57BL/6 mice; test: Nutlin 3b administration to aged mice for 3 months; assay type: in vivo, mouse
Text: The vehicle group was given a solvent alone on the same schedule.

[8] = test system: caspase-3; test: Apoptosis by Western blotting of fragmented caspase-3 in young and senescent IMR90 cells; assay type: cell-based, human; details: different concentrations for 72 hours
Text: Ras gene with oncogenic mutation was introduced into young cells (within 1 month of continuous culture) of IMR90 cells by retroviral infection to acquire stress senescent cells.

[9] = biological target: T1, PGAM-Chk1 binding (Homo sapiens, UniProt O14757+P18669); test: Nano-Bit PGAM-Chk1 binding in cancer cell line H1299; assay type: cell-based; details: H1299 cells; 40 μM for 12, 24, and 48 hours
T1 construct: expressed in transfected cells
Text: PGAM and Chk1 kinase genes tagged with Nano-Bit tags were introduced into the cancer cell line H1299 to prepare a cell line capable of stable expression. […] The treated cells were used to measure intracellular luciferase luminescence signals by Nano-Bit for each.

[10] = 11.62 mg/kg intraperitoneal once a week for 3 months

T1 sequence (P18669 whole entry): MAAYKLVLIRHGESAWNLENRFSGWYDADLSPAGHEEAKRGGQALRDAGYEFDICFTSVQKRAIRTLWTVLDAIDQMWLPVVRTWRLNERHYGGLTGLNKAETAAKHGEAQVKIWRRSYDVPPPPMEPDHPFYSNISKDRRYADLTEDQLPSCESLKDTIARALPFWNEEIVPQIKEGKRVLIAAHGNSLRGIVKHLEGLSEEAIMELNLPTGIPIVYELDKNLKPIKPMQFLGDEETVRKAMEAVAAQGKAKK
T1 sequence (O14757 whole entry): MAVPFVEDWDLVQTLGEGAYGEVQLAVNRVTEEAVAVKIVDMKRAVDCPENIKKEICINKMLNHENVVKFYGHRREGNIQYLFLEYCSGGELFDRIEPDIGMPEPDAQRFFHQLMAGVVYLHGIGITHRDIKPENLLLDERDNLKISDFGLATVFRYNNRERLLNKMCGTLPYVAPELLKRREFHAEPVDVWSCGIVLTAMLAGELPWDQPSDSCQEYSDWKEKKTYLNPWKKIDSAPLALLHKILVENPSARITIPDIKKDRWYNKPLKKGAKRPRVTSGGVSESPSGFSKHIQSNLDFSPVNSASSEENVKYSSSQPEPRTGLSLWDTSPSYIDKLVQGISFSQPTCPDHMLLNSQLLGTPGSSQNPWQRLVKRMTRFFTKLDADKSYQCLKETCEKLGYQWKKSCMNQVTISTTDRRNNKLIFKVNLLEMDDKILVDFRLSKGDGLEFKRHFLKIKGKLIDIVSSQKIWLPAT

## COc1ccc(C2=N[C@H](c3ccc(Cl)cc3)[C@H](c3ccc(Cl)cc3)N2C(=O)N2CCNC(=O)C2)c(OC(C)C)c1 [nutlin 3b]
[1]
  inflammatory markers (RT-PCR, organs): reduced
  senescence markers (RT-PCR, organs): reduced
[2]
  glucose consumption: suppressed in a dose-dependent manner
  lactate production: suppressed in a dose-dependent manner
[3]
  protein level of p21: almost unchanged
  protein level of p53: almost unchanged
[4]; IMR90 cells transfected with BIM-specific siRNA, nutlin 3b 96 hours
  senolysis by nutlin 3b treatment in BIM knockdown cells: rescued by BIM knockdown
[4]; young and Ras-induced senescent IMR90 cells, 40 μM for 72 hours
  cell death observed under a microscope: young cells are normal, but senescent cells selectively die
[4]; young and senescent IMR90 cells, 96 hours, 20 or 40 μM
  senolytic effect (cell death): remarkable senolytic effect
[5]
  expression of the apoptosis-inducing gene BIM: increased
[6]; nutlin 3b treatment
  expression of FOXM1, FOXF1, FOXC1, FOXL1, FOXL2, FOXD1, FOXB2, FOXI2, and FOXN1: downregulated
  expression of FOXO1, FOXP1, FOXH1, FOXF2, FOXO4, FOXO3, FOXJ3, FOXQ1, FOXK2, FOXN3, FOXO6, FOXK1, FOXP4, FOXN2, and FOXJ2: upregulated
  expression of FOXO1 and FOXP1: remarkably upregulated
[6]; nutlin 3b-treated senescent cells
  Survivin protein: downregulated
[6]; nutlin 3b-treated senescent cells, microarray
  downregulation of Survivin/BIRC5: about 30 fold
[6]; senescent cells
  FoxM1 mRNA among FOX transcription family members: most dramatically downregulated
  mRNAs for FoxM1 transcription targets (CCNB1, B2, D1, PLK1, ASPM, CEP55): significantly affected
[7]; [10]
  lactate level (plasma): improved
  liver function marker plasma albumin level: improved
  muscle strength (wire hang test): improved
  renal function marker plasma BUN: improved
  renal function marker plasma creatinine: improved
[7]; 11.62 mg/kg once a week for 3 months
  degree of cellular senescence in adipose tissue (SA ß-Gal staining): improved
[7]; histochemical analysis, 11.62 mg/kg once a week for 3 months
  p21-positive cells in the liver: significantly decreased
[7]; liver mRNA, 11.62 mg/kg once a week for 3 months
  SASP factors (IL6, CXCL1, TNFα, and CCL5): reductions
[7]; liver, 11.62 mg/kg once a week for 3 months
  F4/F80-positive cells (macrophage infiltration): reduced
[8]; Ras-induced senescent IMR90 cells
  caspase-3 fragmentation: dose-dependent fragmentation of caspase 3
[8]; young IMR90 cells
  caspase-3 fragmentation: did not cause caspase-3 fragmentation
[9]
  luciferase luminescence signal by Nano-Bit (PGAM-Chk1 binding): treatment time-dependent decrease
